These are literature values, as cited in publication PMC3229099 (Acta biochimica Polonica, 2011).

The subject of data set [1] is δ receptor versus μ receptor. The conditions noted are these: ref Pawlak et al, 1997.
The test system of a further data set is opioid δ receptors. The conditions noted are these: in vivo studies with the use of selective opioid receptor antagonists; ref Kotlińska et al, 2009.

For the substance “amide of cyclo[N^ε, N^δ -carbonyl-D-Lys^2, Dap^5 ]enkephalin”, in data set [1], the GPI/MVD ratio is recorded as 0.33. In the data set with opioid δ receptors, the “receptor type mediating antinociception in vivo” value was “induced antinociception predominantly through opioid δ receptors”.
